Measurements as given in patent US5004756A, “Anti-cancer activity potentiator” (priority 1988, dated 1991).
Converted amounts (≈) assume the structure as drawn. *1 amine or outer side, *2 acyl side, *3 side chain or, on linkers, in order; H or OH if unused. Where a SMILES comes first, the peptide text is derived from it. Bridges are numbered along the chain shown (N, C = ends). Roman numbers before positions name the chains, in order. [ ]: non-standard residue; d: D form. Actinocin(9to1) = Cc1c2oc3c(C)ccc(C(=O)[*:1])c3nc-2c(C(=O)[*:2])c(N)c1=O; NMeV = CN[C@H](C(=O)O)C(C)C; Sar = CNCC(=O)O

Tests used:
[1] = test system: V79/S; assay: Anti-cancer activity potentiating action, colony formation, V79/S parent cells (A-III); format: cell-based, Chinese hamster; conditions: for IC50: Cricetulus griseus
Experimental: (§1) The anti-cancer activity potentiating action of the malate of formula (I) was examined using Chinese hamster cells (sensitive cell line V79/S and ADM-resistant cell line V79/ADM), human hepatoma cells (sensitive cell line PLC/S and colchicin-resistant cell line PLC/Col) and mouse leukemia cells (sensitive cell line L5178Y/S) and aclarubicin-resistant cell line L5178Y/ACR).
(§2) Of these tumor cells, the sensitive cells (400 cells) and the resistant cells (600 cells) were each incubated in 10 ml of Eagle's MEM medium containing 10% bovine serum for 24 hours, and then each of the test drugs indicated in Table 6 was added. Thereafter, the incubation was carried out for 9 days. The concentration (IC50 : micrograms/ml) of the test drug required to inhibit 50% of the colony formation (proliferation) of the tumor cells was calculated.
(§3) (A) Chinese hamster V79 cells
(§4) As anti-cancer agents, there were used adriamycin (ADM), aclarubicin (ACR), actinomycin D (ACD), 5-fluorouracil (5-FU), cytarabin (Ara-C), cisplatin (CDDP), methotrexate (MTX), mitomycin C (MMC), nimustine (ACNU), mitoxantrone, etoposide ([…]), vincristine (VCR), bleomycin (BLM) and peplomycin (PEP). For the sensitive cells, the anti-cancer agents were used in combination with 10 micrograms/ml of the malate of formula (I), and for the resistant cells, the anti-cancer agents were used in combination with the malate of formula (I) 3 micrograms/ml, 5 micrograms/ml, and 10 micrograms/ ml.

[2] = test system: V79/ADM; assay: Anti-cancer activity potentiating action, colony formation, V79/ADM resistant cells (A-III); format: cell-based, Chinese hamster; conditions: for IC50: Cricetulus griseus
Experimental: as §1, §2, §3, §4

[3] = test system: V79/ADM; assay: Colony formation (proliferation) inhibition, ADM-resistant Chinese hamster cells (A-I Part 1); format: cell-based
Experimental: (§5) Sensitive cell line V79/S and ADM-resistant cell line V79/ADM of the Chinese hamster were used, and sensitive cell line PLC/S and cholchicin-resistant cell line PLC/Col, as human hepatoma cells.
(§6) The sensitive cell lines (400 cells) or the resistant cell lines (600 cells) were each incubated for 24 hours in 10 ml of Eagle's MEM medium containing 10% bovine serum. Each of the drugs indicated in Table 1 below was dissolved in ethanol, and 50 microliters of the resulting solution was added to the medium. The incubation was further carried out for 9 days. The concentration of the drug which inhibits 50% of the colony formation (proliferation) of the tumor cells was calculated.
(§7) V79/S and V79/ADM were tested by using all of the drugs described above, but PLC/S and PLC/Col were tested by using only the malate of formula (I), adriamycin and peplomycin.
(§8) The concentrations (micrograms/ml) required to inhibit 50% of the proliferation of the tumor cells, expressed by IC50, are shown in Table 1.

[4] = test system: clinically isolated human cancer cells (lung adenocarcinoma, lung squamous cell carcinoma, osteosarcoma, ovarian carcinoma); assay: Anti-tumor activity on clinically isolated human cancer cells, morphological changes (A-I Part 2); format: cell-based
Experimental: Lung adenocarcinoma, lung squamous cell carcinoma, osteosarcoma and ovarian carcinoma were selected as clinically isolated human cancer cells, and the anti-tumor activities of various drugs were examined. Specifically, various tumor tissues were individually cut to thin pieces by a razor, and by washing in saline by using a 1 mm mesh, the connective tissues were removed. The resulting solution was centrifuged at 1000 rpm for 1 minute to remove necrotizing substances. Washing with saline gave tumor cells.
They were incubated at 37° for 4 to 8 hours. Thereafter, pumping was carried out to disperse the tissue pieces. Then, centrifugation at 1000 rpm for 5 minutes, cell coating and Giemsa staining were performed. The anti-tumor activity of each drug was examined on the basis of observation of the morphological changes of the tumor cells under a microscope.
The experiment was conducted on two examples of each tumor cells (total 8 examples).

[5] = test system: V79/S; assay: Colony formation (proliferation) inhibition, sensitive Chinese hamster cells (A-I Part 1); format: cell-based
Experimental: as §5, §6, §7, §8

[6] = test system: P388 mouse leukemia cells; assay: Life prolongation of BDF1 mice with P388 leukemia, combination with CPA; format: in vivo, mouse (male BDF1); conditions: for Number of surviving animals: 30 days
Experimental: Male BDF1 mice having a body weight of 20±2 g, 6 per group, were used. P388 mouse leukemia cells (one week after transplantation) as tumor cells were washed with 0.9% saline and suspended in saline so that the number of the cells reached 5×10^6 /m. The suspension was intraperitoneally administered to the mice at a rate of 0.2 ml (10^6 cells) per mouse.
Twenty-four hours after the transplantation of tumor cells, the malate of formula (I) and cyclophosphamide ([…]) were successively administered intraperitoneally once to the mice, and the life prolongation rate of the mice in each group was determined.
The malate of formula (I) was used after suspending it and Tween 80 at a ratio of 1:5 to saline, and this suspension was diluted with a solution of Tween 80 in the same concentration. CPA, on the other hand, was used as a solution in saline.
CPA (50 mg/kg and 100 mg/kg) and the malate of formula (I) (10 mg/kg and 20 mg/kg) were administered singly or in combination, and the life prolongation rate was determined.

[7] = read-out: IC50, anti-cancer agent alone
[8] = read-out: IC50 in combination with compound (I)
[9] = V79/S, with compound (I) 10 μg/ml
[10] = V79/ADM, with compound (I) 5 μg/ml
[11] = V79/S, alone, Table 6, read-out: IC50, anti-cancer agent alone
[12] = V79/S, with compound (I) 10 μg/ml, read-out: IC50 in combination with compound (I)
[13] = V79/ADM, alone, Table 6, read-out: IC50, anti-cancer agent alone
[14] = V79/ADM, with compound (I) 5 μg/ml, read-out: IC50 in combination with compound (I)
[15] = V79/ADM, with compound (I) 3 μg/ml, read-out: IC50 in combination with compound (I)
[16] = V79/ADM, with compound (I) 3 μg/ml

Cc1c2oc3c(C)ccc(C(=O)N[C@@H]4C(=O)N[C@H](C(C)C)C(=O)N5CCC[C@H]5C(=O)N(C)CC(=O)N(C)[C@@H](C(C)C)C(=O)O[C@@H]4C)c3nc-2c(C(=O)N[C@@H]2C(=O)N[C@H](C(C)C)C(=O)N3CCC[C@H]3C(=O)N(C)CC(=O)N(C)[C@@H](C(C)C)C(=O)O[C@@H]2C)c(N)c1=O [ACD, actinomycin D] (I: T[dV]P[Sar][NMeV] / II: T[dV]P[Sar][NMeV]; ester I:1-I:C, II:1-II:C; linker I:N-II:N via Actinocin(9to1))
IC50 [1, 7]: 0.017 µg/mL | IC50 [1, 8]: 0.0032 µg/mL | Potentiation activity [1, 9]: 5.3 times | IC50 [2, 7]: 0.28 µg/mL | IC50 [2, 8]: 0.0063 µg/mL | Potentiation activity ([2]; V79/ADM, with compound (I) 10 μg/ml): 44.4 times | IC50 ([3]; Cricetulus griseus, 216 h): 0.28 µg/mL (≈ 0.223 µM) | Efficacy ratio (rated significant by Fisher's test) ([4]; 0.01 μg/ml): 0/8 | IC50 ([5]; Cricetulus griseus, 216 h): 0.017 µg/mL (≈ 0.0135 µM)

Cc1ncc(CNC(=O)N(CCCl)N=O)c(N)n1 [ACNU, nimustine]
IC50 [1, 7]: 7.6 µg/mL | IC50 [1, 8]: 5.4 µg/mL | Potentiation activity [1, 9]: 1.4 times | IC50 [2, 7]: 10 µg/mL | IC50 [2, 8]: 3.1 µg/mL | Potentiation activity [2, 10]: 3.20 times | Efficacy ratio (rated significant by Fisher's test) ([4]; 2.0 μg/ml): 3/8

Nc1ccn([C@@H]2O[C@H](CO)[C@@H](O)[C@@H]2O)c(=O)n1 [Ara-C, cytarabin]
IC50 [1, 11]: 76 nM | IC50 [1, 12]: 54 nM | Potentiation activity [1, 9]: 1.4 times | IC50 [2, 13]: 220 nM | IC50 [2, 14]: 35 nM | Potentiation activity [2, 10]: 6.3 times

[NH2][Pt]([NH2])([Cl])[Cl] [CDDP, cisplatin]
IC50, anti-cancer agent alone ([1]; V79/S, alone, Table 6): 0.37 µg/mL | IC50 in combination with compound (I) [1, 9]: 0.27 µg/mL | Potentiation activity [1, 9]: 1.4 times | IC50, anti-cancer agent alone ([2]; V79/ADM, alone, Table 6): 0.32 µg/mL | IC50 in combination with compound (I) [2, 10]: 0.13 µg/mL | Potentiation activity [2, 10]: 2.5 times | IC50 ([3]; V79/ADM, 9 days, Table 1): 0.32 µg/mL | Efficacy ratio (rated significant by Fisher's test) ([4]; 0.5 μg/ml): 4/8 | IC50 ([5]; V79/S, 9 days, Table 1): 0.37 µg/mL

O=P1(N(CCCl)CCCl)NCCCO1 (stereo not shown) [CPA, cyclophosphamide]
MST (medium survival time) ([6]; CPA 50 mg/kg i.p.): 20.3 | T/C vs control ([6]; CPA 50 mg/kg i.p.): 201% | T/C vs CPA alone ([6]; CPA 50 mg/kg i.p. (reference group)): 100% | Number of surviving animals ([6]; CPA 50 mg/kg i.p.): 0/6 | MST (medium survival time) ([6]; CPA 100 mg/kg i.p.): 24.0 | T/C vs control ([6]; CPA 100 mg/kg i.p.): 238% | T/C vs CPA alone ([6]; CPA 100 mg/kg i.p. (reference group)): 100% | Number of surviving animals ([6]; CPA 100 mg/kg i.p.): 1/6

O=P1(N(CCCl)CCCl)NCCCO1 (stereo not shown) [CPM]
Efficacy ratio (rated significant by Fisher's test) ([4]; 10 μg/ml): 3/8

COC(COC(N)=O)C1=C(N2CC2)C(=O)C(C)=C(N2CC2)C1=O (stereo not shown) [CQ, carboquone]
Efficacy ratio (rated significant by Fisher's test) ([4]; 0.1 μg/ml): 1/8

COc1cc([C@@H]2c3cc4c(cc3[C@@H](O[C@@H]3O[C@@H]5CO[C@@H](C)O[C@H]5[C@H](O)[C@H]3O)[C@H]3COC(=O)[C@H]23)OCO4)cc(OC)c1O [Etoposide, etoposide]
IC50 [1, 11]: 0.27 µg/mL | IC50 [1, 12]: 0.098 µg/mL | Potentiation activity [1, 9]: 2.8 times | IC50 [2, 13]: > 20 µg/mL | IC50 [2, 15]: 7.4 µg/mL | Potentiation activity [2, 16]: 2.7 times

O=c1[nH]cc(F)c(=O)[nH]1 [Example 5-FU, 5-fluorouracil]
IC50 [1, 11]: 9700 nM | IC50 [1, 12]: 2100 nM | Potentiation activity [1, 9]: 4.6 times | IC50 [2, 13]: 7200 nM | IC50 [2, 14]: 620 nM | Potentiation activity [2, 10]: 11.6 times | Efficacy ratio (rated significant by Fisher's test) ([4]; 10 μg/ml): 1/8

N[C@@H](Cc1ccc(N(CCCl)CCCl)cc1)C(=O)O [MPL, melphalan]
Efficacy ratio (rated significant by Fisher's test) ([4]; 0.5 μg/ml): 1/8

CN(Cc1cnc2nc(N)nc(N)c2n1)c1ccc(C(=O)N[C@@H](CCC(=O)O)C(=O)O)cc1 [MTX, methotrexate]
IC50 [1, 11]: 0.014 µg/mL | IC50 [1, 12]: 0.017 µg/mL | Potentiation activity [1, 9]: 0.8 times | IC50 [2, 13]: 0.0078 µg/mL | IC50 [2, 14]: < 0.0025 µg/mL | Potentiation activity [2, 10]: > 3.12 times | IC50 ([3]; Cricetulus griseus, 216 h): 0.0078 µg/mL (≈ 0.0172 µM) | Efficacy ratio (rated significant by Fisher's test) ([4]; 3.0 μg/ml): 1/8 | IC50 ([5]; Cricetulus griseus, 216 h): 0.017 µg/mL (≈ 0.0374 µM)

O=C1c2c(O)ccc(O)c2C(=O)c2c(NCCNCCO)ccc(NCCNCCO)c21 [Mitoxantrone, mitoxantrone]
IC50 [1, 11]: 0.019 µg/mL | IC50 [1, 12]: 0.0081 µg/mL | Potentiation activity [1, 9]: 2.3 times | IC50 [2, 13]: 0.36 µg/mL | IC50 [2, 15]: 0.074 µg/mL | Potentiation activity [2, 16]: 4.9 times | IC50 ([3]; Cricetulus griseus, 216 h, V79/ADM, 9 days, Table 1, read-out: IC50): 0.36 µg/mL (≈ 0.81 µM) | IC50 ([5]; Cricetulus griseus, 216 h, V79/S, 9 days, Table 1, read-out: IC50): 0.019 µg/mL (≈ 0.0427 µM)

CC[C@]1(O)C[C@H]2CN(CCc3c([nH]c4ccccc34)[C@@](C(=O)OC)(c3cc4c(cc3OC)N(C=O)[C@H]3[C@@](O)(C(=O)OC)[C@H](OC(C)=O)[C@]5(CC)C=CCN6CC[C@]43[C@@H]65)C2)C1 [VCR, vincristine]
IC50 [1, 11]: 0.0271 µg/mL | IC50 [1, 12]: 0.00325 µg/mL | Potentiation activity [1, 9]: 8.3 times | IC50 [2, 13]: 0.73 µg/mL | IC50 [2, 15]: 0.0351 µg/mL | Potentiation activity [2, 16]: 20.8 times | Efficacy ratio (rated significant by Fisher's test) ([4]; 0.1 μg/ml): 2/8

CC[C@]1(O)C[C@@H]2CN(CCc3c([nH]c4ccccc34)[C@@](C(=O)OC)(c3cc4c(cc3OC)N(C)[C@H]3[C@@](O)(C(N)=O)[C@H](O)[C@]5(CC)C=CCN6CC[C@]43[C@@H]65)C2)C1 [VDS, vindesine]
Efficacy ratio (rated significant by Fisher's test) ([4]; 0.5 μg/ml): 0/8

CC[C@]1(O)C[C@@H]2CN(CCc3c([nH]c4ccccc34)[C@@](C(=O)OC)(c3cc4c(cc3OC)N(C)[C@H]3[C@@](O)(C(=O)OC)[C@H](OC(C)=O)[C@]5(CC)C=CCN6CC[C@]43[C@@H]65)C2)C1 [VLB, vinblastine]
Efficacy ratio (rated significant by Fisher's test) ([4]; 0.1 μg/ml): 3/8

bleomycin [BLM]
IC50, anti-cancer agent alone ([1]; V79/S, alone, Table 6): 2.1 µg/mL | IC50 in combination with compound (I) [1, 9]: 0.01 µg/mL | Potentiation activity [1, 9]: 202 times | IC50, anti-cancer agent alone ([2]; V79/ADM, alone, Table 6): 0.56 µg/mL | IC50 in combination with compound (I) [2, 16]: 0.0385 µg/mL | Potentiation activity [2, 16]: 14.5 times | Efficacy ratio (rated significant by Fisher's test) ([4]; 1.0 μg/ml): 2/8
